According to patent publication US20250262229A1, “APPLICATION OF PHD2 INHIBITOR IN PREPARATION OF DRUGS FOR PREVENTION AND TREATMENT OF PLATELET THROMBUS” (Nankai University, priority 2024, published 2025):

Tests used:
SD rat platelets [1] = test: Collagen-platelet adhesion assay; assay type: cell-based; details: 1 μM IOX2-treated PHD2 protein, 10 μg/mL type I collagen
Experimental: (§1) The binding of platelets to collagen occurs mainly through VWF as a junction. PHD2 promotes the hydroxylation of collagen to form a three-dimensional structure to better bind to VWF. To verify the above principle, 10 μg/mL type I collagen is mixed with 1 μM IOX2-treated PHD2 protein and inoculated into a black 96-well plate, incubated at 4° C. overnight. Parallel triplicates, for the first one, SD rat platelets (2×10^7 cells/mL) are added and incubated at 37° C. for 90 minutes, after full washing with PBS, the fixed platelets are stained with Calcein-AM dye. For the second one, the primary antibody of VWF (Beijing Boaosen Biology technology Co., LTD., bs-20428R) is incubated at 4° C. overnight, after the excess primary antibody is washed away by PBS, the fluorescent secondary antibody (Abcam, ab150077) is incubated at 37° C. for 1 hour, and the excess secondary antibody is washed away. For the third one, SD rat plasma is added, incubated at room temperature for 4 hours, and then SD rat platelets (2×10^7 cells/mL) are added, incubated at 37° C. for 90 minutes, after full washing with PBS, the fixed platelets are stained with Calcein-AM dye. The fluorescence values of respective groups are measured by a multifunctional microplate reader at the excitation wavelength of 488 nm and the emission wavelength of 525 nm.

binding of collagen-VWF = test: Collagen-VWF binding assay; details: 1 μM IOX2-treated PHD2 protein, 10 μg/mL type I collagen; VWF antibody detection
Experimental: as §1

SD rat platelets [2] = test: Collagen-VWF-platelet adhesion assay; assay type: cell-based; details: 1 μM IOX2-treated PHD2 protein, 10 μg/mL type I collagen; SD rat plasma then platelets
Experimental: as §1

SD rat platelets [3] = test: Platelet adhesion to collagen on glass slides, fluorescence imaging analysis; assay type: cell-based; details: IOX2 0.1 μM, 1 μM, 10 μM incubated with 100 μg/mL PHD2 protein; 10 μg/mL type I collagen
Experimental: Different doses of PHD2 inhibitor IOX2 (0.1 μM, 1 μM, 10 μM) are taken and incubated with 100 μg/mL PHD2 protein at 4° C. for 8 hours, then 10 μg/mL type I collagen is mixed with the above solution and added dropwise to glass slides, and incubated at 4° C. overnight. SD rat platelets (2×10^7 cells/mL) are then inoculated on the glass slides and incubated at 37° C. for 90 minutes. After being fully washed by PBS, the fixed platelets are stained with Calcein-AM dye, fluorescence imaging analysis is performed using fluorescence microscope (Leica TCS SP8, Germany), and statistical analysis is performed on platelets with collagen adhesion using Image J software. The results are shown as in FIG. 5A.

[4] = system: soft tissue injury in rats; test: Blood microcirculation disorder induced by acute soft tissue injury in rats; assay type: in vivo, SD rats; details: N-acetylcysteine 70 mg/kg/d i.p., ginsenoside CK 25 and 12.5 mg/kg/d i.p., vs model group; for whole blood viscosity: low, medium and high shear rate
Experimental: SD male rats are taken and randomly divided into a blank control group, a model group, a positive control group (N-acetylcysteine, intraperitoneally injected at 70 milligrams per kilogram per day abbreviated as mg/kg/d), and high and low dose ginsenoside CK groups (intraperitoneally injected at 25 mg/kg/d and 12.5 mg/kg/d). The blank control group and the model group are given the same volume of sterile drinking water in the same manner. The molding is investigated three days after pre-administration. The rats are first anesthetized with 1% pentobarbital sodium (40 mg/kg), and the hair of the right buttocks and posterior thighs of the anesthetized rats are removed and fixed on the plate of an acute soft tissue injury modeling device. A 100 g weight is selected to impact the lateral aspect of the mid-right calf with five free-falls from a height of 100 centimeters (cm) causing soft tissue injury. The rats with successful modeling are continued to be administered for 4 days, and 1 hour after the last administration, the rats are anesthetized, blood is collected from the abdominal aorta with a blood viscometer to detect the viscosity of whole blood of the rats with high shear rate [200 s], medium shear rate [30 s], low shear rate [3 s], and low shear rate [1 s]. Coagulation parameters, such as erythrocyte aggregation index, erythrocyte packed-cell volume, platelet number and mean platelet volume, are determined by using a blood cell analyzer.

[5] = system: LPS-induced DIC model in mice; test: LPS-induced disseminated intravascular coagulation (DIC) model in mice; assay type: in vivo; details: aspirin 10 mg/kg taken orally, Daprodustat 10 mg/kg intraperitoneal injection
Experimental: The sh-PHD2 mice and sh-ctrl blank mice are randomly divided into a blank group and a model group, with 6 mice in each group. The model group is injected intraperitoneally with 10 milligrams per kilogram (mg/kg) lipopolysaccharide abbreviated as LPS (Beijing Solarbio Science & Technology Co., Ltd., Cat. No. L8880) to induce the mice to establish a disseminated intravascular coagulation (DIC) model, and the blank group is injected intraperitoneally with the corresponding volume of physiological saline. After 2 hours, the mice are anesthetized by intraperitoneal injection of 1% pentobarbital sodium (40 mg/kg), and the tail is cut at a site of 3 millimeters (mm) from the tip of the tail of each mouse, and the tail is placed vertically in 37° C. physiological saline immediately after the first drop of blood is sucked up on filter paper to record the tail bleeding time.
In addition to the blank group, the other groups use the method of the embodiment 1 to prepare the LPS-induced DIC model in mice, and the administration group is given drug intervention 1 hour before modeling.

PHD2 protein [6] = target: T1, PHD2 protein (Homo sapiens, UniProt Q9GZT9); test: Surface plasmon resonance (SPR) interaction analysis with PHD2; assay type: binding; details: Biacore T200, CM5 chip, 1.56 μM to 200 μM, read-out: dissociation constants KD with PHD2 protein
Experimental: The interaction between these active natural products and recombinant human PHD2 protein is analyzed by surface plasmon resonance (SPR) technique using a Biacore™ T200 surface plasmon resonance analyzer from GE healthcare. The CM5 chip is selected, the purified PHD2 protein is immobilized on the channel of the chip, and the active natural product solution as a mobile phase is flowed through the chip, with the concentration ranging from 1.56 μM to 200 μM. The flow rate of mobile phase is 30 μL/min, and the dissociation is monitored for 150 seconds.

PHD2 protein [7] = target: T1, PHD2 protein; test: PHD2 enzyme activity, 2-oxogalarate-phenylenediamine method; assay type: biochemical; design: purchased Abcam ab132273
Experimental: 1 micromole per liter (μM) PHD2 inhibitor is incubated with 100 micrograms per milliliter (μg/mL) PHD2 protein (Abcam, Cat. No. ab132273) at 4° C. for 8 hours, and its inhibitory effect on PHD2 enzyme activity is determined according to the 2-oxogalarate-phenylenediamine method.
100 μL of PHD2 enzyme solution incubated with the PHD2 inhibitor is taken and 100 μL of reaction substrate (300 μM of 2-oxogalarate, 150 μM of Fe^2+) is added, followed by 100 μL of 0.5 moles (M) of hydrogen chloride (HCl) and 10 mg/mL of o-phenylenediamine, and the reaction is carried out at 95° C. for 15 minutes after mixing, so as to obtain a reaction product. The reaction product is centrifuged to taken the supernatant, 10 μL of 1.25 M of sodium hydroxide (NaOH) is added to terminate the reaction, and the fluorescence value of the reaction is determined using 340 nanometers (nm) excitation at the emission wavelength of 420 nm, the results are shown in FIG. 3B.

[8] = system: Pseudomonas aeruginosa infected mice; test: Blood coagulation function in mice infected with Pseudomonas aeruginosa; assay type: in vivo, ICR (CD-1) mice; details: plasma 24 hours after infection; polydatin 10, 20, 40 mg/kg i.p.; aspirin 30 mg/kg gavage; Daprodustat 15 mg/kg i.p.; vs model group
Experimental: ICR (CD-1) male mice are taken and randomly divided into 7 groups (6 mice in each group), which are a blank control group, a model group, an aspirin positive control group (gavage at 30 mg/kg), a Daprodustat-positive control group (intraperitoneally injected at 15 mg/kg), and low, medium and high doses of polydatin group (intraperitoneally injected at 10 mg/kg, 20 mg/kg, 40 mg/kg). Mice are anesthetized by intraperitoneal injection of 1% pentobarbital sodium (40 mg/kg). Activated Pseudomonas aeruginosa (1×10^7/20 μL) is added dropwise into the nasal cavity of mice in the model group and each administration group, and an equal amount of physiological saline is dropped into the blank control group. The respective groups are administered at 0 and 8 hours after molding, respectively. 24 hours after infection, plasma is obtained by blood sampling from mouse eyeballs, and four indexes of coagulation (prothrombin time, activated partial […] and fibrinogen) are measured by a semi-automatic coagulation analyzer.

T1 sequence (Q9GZT9 whole entry): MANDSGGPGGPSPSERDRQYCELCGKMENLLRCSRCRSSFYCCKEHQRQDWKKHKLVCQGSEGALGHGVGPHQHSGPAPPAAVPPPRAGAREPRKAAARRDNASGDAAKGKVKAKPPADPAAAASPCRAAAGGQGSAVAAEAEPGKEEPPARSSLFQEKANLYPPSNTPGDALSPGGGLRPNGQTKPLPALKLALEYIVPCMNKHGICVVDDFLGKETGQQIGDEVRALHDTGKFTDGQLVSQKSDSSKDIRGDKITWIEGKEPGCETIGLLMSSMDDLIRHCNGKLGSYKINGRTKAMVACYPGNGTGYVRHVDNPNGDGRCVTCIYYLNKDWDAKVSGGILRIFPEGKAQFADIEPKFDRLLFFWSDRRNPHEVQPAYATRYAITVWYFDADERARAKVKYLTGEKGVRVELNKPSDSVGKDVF

O=C(O)CNC(=O)c1c(O)c2ccccc2n(Cc2ccccc2)c1=O [IOX2, N-[[1,2-dihydro-4-hydroxy-2-oxo-1-(phenylmethyl)-3-quinolinyl]carbonyl]-glycine]
PHD2-mediated collagen-platelet adhesion (SD rat platelets [1]): significantly reduces the occurrence of PHD2-mediated platelet adhesion | binding of collagen-VWF (binding of collagen-VWF): affecting the binding of collagen-VWF | collagen-VWF-platelet adhesion (SD rat platelets [2]): blocking the binding of collagen-VWF-platelet adhesion | platelet adhesion to collagen (fluorescence imaging) (SD rat platelets [3]): inhibits platelet adhesion to collagen in a concentration-dependent manner

CC(=O)N[C@@H](CS)C(=O)O [N-acetylcysteine, reference compound]
erythrocyte aggregation index [4]: significantly reduce | erythrocyte packed-cell volume [4]: significantly reduce | mean platelet volume [4]: improved | platelet number [4]: significantly reduce | whole blood viscosity [4]: improved to a certain extent

CC(=O)Oc1ccccc1C(=O)O [aspirin]
pulmonary thrombi, Masson staining of lung tissues [5]: significantly inhibit the formation of thrombus | tail bleeding time ([5]; vs LPS group): significantly increase | tail bleeding volume ([5]; vs LPS group): significantly increase

CC(C)=CCC[C@](C)(O[C@@H]1O[C@H](CO)[C@@H](O)[C@H](O)[C@H]1O)[C@H]1CC[C@]2(C)[C@@H]1[C@H](O)C[C@@H]1[C@@]3(C)CC[C@H](O)C(C)(C)[C@@H]3CC[C@]12C [ginsenoside CK]
erythrocyte aggregation index [4]: significantly reduce | erythrocyte packed-cell volume [4]: significantly reduce | mean platelet volume [4]: improved | platelet number [4]: significantly reduce | whole blood viscosity [4]: improved to a certain extent | Kd (PHD2 protein [6]): 18 µM | inhibition of PHD2 enzyme activity (PHD2 protein [7]; ginsenoside CK at 0.5 μM, 5 μM, 50 μM): inhibit the PHD2 enzyme activity in a concentration gradient

OC[C@H]1O[C@@H](Oc2cc(O)cc(/C=C/c3ccc(O)cc3)c2)[C@H](O)[C@@H](O)[C@@H]1O [polydatin]
activated partial thrombin time [8]: significantly prolong | fibrinogen content in blood [8]: reduced | prothrombin time [8]: significantly prolong | thrombin time [8]: significantly prolong | Kd (PHD2 protein [6]): 23.5 µM | inhibition of PHD2 enzyme activity (PHD2 protein [7]; polydatin at 0.1 μM, 1 μM, 10 μM): inhibit the PHD2 enzyme activity in a concentration gradient
